Assay results reported in ChEMBL document CHEMBL4020764, “Phytochemical and cytotoxic studies on the leaves of Calotropis gigantea” (Bioorg Med Chem Lett, 2017).
The source made the active and inactive calls. No cut-off for these calls is given here.

Key:
[1] = tested on: PANC-1; assay: Cytotoxicity against human PANC1 cells after 72 hrs by WST8 assay; assay type: functional, cell-based; conditions: PANC-1, 72 h
[2] = tested on: PANC-1; assay: Growth inhibition of human PANC1 cells after 72 hrs by WST8 assay; assay type: functional; conditions: PANC-1, 72 h
[3] = tested on: PANC-1; assay: Cytotoxicity against human PANC1 cells at >25 uM measured after 72 hrs by WST8 assay; assay type: functional, cell-based
[4] = tested on: PANC-1; assay: Induction of morphological changes in human PANC1 cells assessed as disruption of cellular organelles at 5 to 10 uM after 72 hrs by ethidium bromide/acridine orange staining based fluorescent microscopic analysis; assay type: functional, cell-based
[5] = tested on: PANC-1; assay: Inhibition of colony formation in human PANC1 cells after 10 days by crystal violet staining based assay; assay type: functional, cell-based
[6] = tested on: PANC-1; assay: Induction of morphological changes in human PANC1 cells assessed as increase in EB positive cells at 5 to 10 uM after 72 hrs by ethidium bromide/acridine orange staining based fluorescent microscopic analysis; assay type: functional, cell-based
[7] = tested on: PANC-1; assay: Induction of morphological changes in human PANC1 cells assessed as cell rounding at 5 to 10 uM after 72 hrs by ethidium bromide/acridine orange staining based fluorescent microscopic analysis; assay type: functional

Row | SMILES | IC50 [1] [µM] | other results
1 | CC(=O)[C@H]1CC[C@H]2[C@@H]3C=CC4=CC(=O)CC[C@]4(C)[C@H]3CC[C@]12C | 40 | 
2 | Cc1ncccc1O | > 100 | 
3 | O=Cc1ccc(CO)o1 [AES-103] | > 100 | 
4 | CC(=O)[C@]1(O)CC[C@]2(O)[C@@H]3CC=C4C[C@@H](O)CC[C@]4(C)[C@H]3C[C@@H](OC(=O)c3ccccc3)[C@]12C | 18.7 | 
5 | CC(=O)[C@H]1CC[C@@]2(O)[C@@H]3C=CC4=CC(=O)CC[C@]4(C)[C@H]3CC[C@]12C | 79.3 | 
6 | COc1cc(C(=O)OC[C@H]2O[C@@H](Oc3ccc([C@H]4OC[C@H]5[C@@H]4CO[C@@H]5c4ccc(O)c(OC)c4)cc3OC)[C@H](O)[C@@H](O)[C@@H]2O)ccc1O | 63.4 | 
7 | O=C(/C=C/c1ccc(O)cc1)c1ccc(O)cc1O [ISOLIQUIRITIGENIN] | 3.3 | 
8 | CO[C@@H]1C[C@@H](OCc2ccc(C=O)o2)O[C@@H](C)[C@@H]1O | > 100 | 
9 | CO[C@H]1C[C@@H](OCc2ccc(C=O)o2)O[C@@H]1[C@@H](C)O | > 100 | 
10 | COc1cc([C@H]2OC[C@H]3[C@@H]2CO[C@@H]3c2ccc(O)c(OC)c2)ccc1O | 37.5 | 
11 | Nc1ccn([C@@H]2O[C@H](CO)[C@@H](O)C2(F)F)c(=O)n1 [GEMCITABINE] |  | GI50 [2]: 5.8 µM; Activity [3]: Active
12 | COc1cc([C@H]2OC[C@H]3[C@@H]2CO[C@@H]3c2cc(OC)c(O)c(OC)c2)cc(OC)c1O [SYRINGARESINOL] | 61.1 | 
13 | COc1cc([C@H]2O[C@@H](OC)[C@H]3[C@@H]2CO[C@@H]3c2ccc(O)c(OC)c2)ccc1O | 3.7 | Activity [4]: Active; inhibition [5]: Dose-dependent effect; Activity [6]: Active; Activity [7]: Active
